# Data: ChEMBL document CHEMBL4251597, “Discovery and evolution of aloperine derivatives as a new family of HCV inhibitors with novel mechanism” (Eur J Med Chem, 2018)
# Calls of active or inactive are those of the source. The calls are words filed in the database; no cut-off is given here.
# Columns and labels:
# Type in all cases: functional, organism-based
# Conditions in all cases: Hepacivirus hominis
# Hepatitis C virus [1] = assay: Antiviral activity against HCV infected in human GS4.3 cells assessed as inhibition of NS3/4A levels at 0.15 uM treated with fresh media containing compound every 2 days measured after 6 days by Western blot method
# Hepatitis C virus [2] = assay: Antiviral activity against HCV infected in human GS4.3 cells assessed as inhibition of viral core protein levels at 0.15 uM treated with fresh media containing compound every 2 days measured after 6 days by Western blot method
# Hepatitis C virus [3] = assay: Antiviral activity against HCV J6/JFH/JC-1 infected in human Huh7.5 cells harboring […] S282T mutant assessed as inhibition of viral core protein levels at 0.01 to 1 uM treated with fresh media containing compound every 2 days by Western blot method
# Hepatitis C virus [4] = assay: Antiviral activity against HCV infected in human GS4.3 cells assessed as inhibition of viral core protein levels at 0.8 uM treated with fresh media containing compound every 2 days measured after 6 days by Western blot method
# Hepatitis C virus [5] = assay: Antiviral activity against 22.5 to 90 IU/cell of HCV J6/JFH/JC-1 infected in human Huh7.5 cells assessed as inhibition of NS3/4A levels at 0.05 uM treated with fresh media containing compound every 2 days by Western blot method
# Hepatitis C virus [6] = assay: Antiviral activity against HCV infected in human GS4.3 cells assessed as inhibition of NS3/4A levels at 0.8 uM treated with fresh media containing compound every 2 days measured after 6 days by Western blot method
# Hepatitis C virus [7] = assay: Antiviral activity against 22.5 to 90 IU/cell of HCV J6/JFH/JC-1 infected in human Huh7.5 cells assessed as inhibition of viral core protein levels at 0.05 uM treated with fresh media containing compound every 2 days by Western blot method
# Hepatitis C virus [8] = assay: Antiviral activity against HCV J6/JFH/JC-1 infected in human Huh7.5 cells assessed as inhibition of NS3/4A S282T mutant levels at 0.01 to 1 uM treated with fresh media containing compound every 2 days by Western blot method
SMILES,inhibition (Hepatitis C virus [1]),inhibition (Hepatitis C virus [2]),inhibition (Hepatitis C virus [3]),inhibition (Hepatitis C virus [4]),inhibition (Hepatitis C virus [5]),inhibition (Hepatitis C virus [6]),inhibition (Hepatitis C virus [7]),inhibition (Hepatitis C virus [8])
COC(=O)N[C@H](C(=O)N1CCC[C@H]1c1ncc(-c2ccc(-c3ccc(-c4cnc([C@@H]5CCCN5C(=O)[C@@H](NC(=O)OC)C(C)C)[nH]4)cc3)cc2)[nH]1)C(C)C,Active,Active,,,,,,
CC(C)OC(=O)[C@H](C)NP(=O)(OC[C@H]1O[C@@H](n2ccc(=O)[nH]c2=O)[C@](C)(F)[C@@H]1O)Oc1ccccc1 (stereo partly drawn),,,inactive,Active,inactive,Active,inactive,inactive
